Test results taken from patent US10828279B2, “Prophylactic and/or therapeutic drug for diabetic nephropathy” (HuBit genomix, Inc., priority 2018, dated 2020).

Tests used:
UUO mice = test: Unilateral ureter obstruction (UUO) mouse renal tubulointerstitial fibrosis model, Sirius Red staining; type: in vivo; conditions: UUO+Palo vs UUO; palovarotene 1 mg/kg i.p. for 6 days, day 7 after ureter ligation
Procedure: Unilateral ureter obstruction (UUO) model is a model in which renal interstitial fibrosis is induced by feeding for seven days under ureter ligation. Briefly, the kidney of a mouse is exposed extraperitoneally by a unilateral dorsal incision. Then, ureter ligation is performed at 2 to 3 spots at intervals of 1 mm with surgical suture, which leads to decreased renal blood flow and glomerular filtration rate. Further, macrophages infiltrate into the tubulointerstitium, apoptosis of tubular epithelial cells occurs, and increase of fibroblasts and extracellular matrix protein progresses in the interstitium, which leads to interstitial fibrosis. In this model, fibrosis is evoked in a short period of time and there is no complication of uremia since no toxic substance is used. Thus, this is an interstitial fibrosis model with high reproducibility. A UUO model was established using 10-12 week-old ICR mice (purchased from CLEA Japan). […] UUO group consists of mice which were kept for 7 days under ureter ligation to thereby induce renal interstitial fibrosis. Palovarotene group consists of mice which received intraperitoneal administration of palovarotene (1 mg/kg) for 6 consecutive days starting from one day after UUO treatment. Mice in each group were dissected 7 days after UUO treatment, followed by histological evaluation of the kidney by Sirius Red staining.

[1] = tested on: Col4α1 (type IV collagen); test: RT-quantitative PCR of Col4α1 (type IV collagen) mRNA expression in AGE-stimulated cultured mouse mesangial cells; type: cell-based; conditions: for Col4α1 (%): relative value, AGE 300 μg/ml+Palovarotene 0.5 μM = 100%
Procedure: (§1) The glomeruli were isolated from four-week-old wild-type C57BL/6J mice according to the method of Davies M. et al. (Kidney Int. 1994; 45(2):320-7)^36 with necessary modifications and primary culture of the glomeruli was conducted in order to establish mouse mesangial cell strains. AGEs used for cell stimulation were prepared according to the method of Doi T. et al. (Proc, Natl. Acad. Sci. U.S.A. 1992; 89:2873-2877)^37 with necessary modifications. The cultured mouse mesangial cells were grown to confluence, subjected to serum starvation using Opti-MEM (Invitrogen). Then, the cells were treated with (1) no stimulation, (2) AGE 300 μg/ml; (3) AGE 300 μg/ml+palovarotene 0.5 μM; or (4) AGE 300 μg/ml+palovarotene 1 μM. Twenty-four hours after the treatment, RNA extraction was performed by AGPC method. RT-quantitative PCR was performed with the resultant RNA, followed by evaluation of mRNA expression levels by the comparative Ct method (ΔΔ Ct method).

BMP4 = test: RT-quantitative PCR of BMP4 mRNA expression in AGE-stimulated cultured mouse mesangial cells; type: cell-based; conditions: for BMP4 (%): relative value, AGE 300 μg/ml+Palovarotene 0.5 μM = 100%
Procedure: as §1

TGF-β1 = test: RT-quantitative PCR of TGF-β1 mRNA expression in AGE-stimulated cultured mouse mesangial cells; type: cell-based; conditions: for TGF-β1 (%): relative value, AGE 300 μg/ml+Palovarotene 0.5 μM = 100%
Procedure: as §1

[2] = tested on: streptozocin-induced diabetic mice; test: Histological evaluation of the kidney in STZ-induced diabetic mice on high fat diet; type: in vivo, mouse; conditions: DM+Palo vs DM; palovarotene 60 μg/kg i.p. twice a week, 12 weeks
Procedure: Streptozocin (Wako) was administered to 12-15 week-old ICR mice (purchased from CLEA Japan) intraperitoneally (I.P.) for five consecutive days at 50 mg/kg per injection to thereby evoke diabetes. Four weeks after the STZ administration, mouse diet was changed to a high fat diet HFD60 (Oriental Yeast) and, at the same time, intraperitoneal administration of palovarotene at 60 μg/kg twice a week was started. Twelve weeks later, the mice were dissected, followed by histological evaluation.

[3] = AGE 300 μg/ml + compound 0.5 μM, 24 h
[4] = AGE 300 μg/ml + compound 1.0 μM, 24 h
[5] = Example 4, 0.5 and 1.0 μM, AGE 300 μg/ml, comparison with palovarotene

CC1(C)CCC(C)(C)c2cc(Cn3cccn3)c(/C=C/c3ccc(C(=O)O)cc3)cc21 [Palovarotene, 4-[(E)-2-[5,5,8,8-tetramethyl-3-(pyrazol-1-ylmethyl)-6,7-dihydronaphthalen-2-yl]ethenyl]benzoic acid]
degree of staining of the tubulointerstitium with Sirius Red (UUO mice): clearly lower than that in the kidney tissue of UUO mice | tubulointerstitial fibrosis (UUO mice): markedly inhibits | Col4α1 (%) [1, 3]: 100% | Col4α1 (%) [1, 4]: 50% | inhibitory effect on Col4α1 (type IV collagen) expression (in words) [1, 5]: dose-dependent inhibitory effect | production of Col4α1 (type IV collagen) increased by AGE stimulation ([1]; palovarotene 0.5 μM, AGE 300 μg/ml, 24 h, FIG. 2C): completely inhibited | BMP4 (%) (BMP4; [3]): 100% | BMP4 (%) (BMP4; [4]): 60% | BMP4 expression increased by AGE stimulation (BMP4; AGE 300 μg/ml + palovarotene 0.5 or 1 μM, 24 h, FIG. 2B): clearly inhibited by palovarotene in a dose dependent manner | inhibitory effect on BMP4 expression (in words) (BMP4; [5]): dose-dependent inhibitory effect | inhibition of BMP4 expression increased by AGE stimulation (BMP4; palovarotene 1 μM, AGE 300 μg/ml, 24 h, FIG. 2B): almost complete | TGF-β1 (%) (TGF-β1; [3]): 100% | TGF-β1 (%) (TGF-β1; [4]): 70% | TGF-β expression increased by AGE stimulation (TGF-β1; AGE 300 μg/ml + palovarotene 0.5 or 1 μM, 24 h, FIG. 2A): strongly inhibited | inhibitory effect on TGF-01 expression (in words) (TGF-β1; [5]): dose-dependent inhibitory effect | Smad1 activation (pSmad1) [2]: inhibition of Smd1 activation | WT1 expressed in the podocyte nuclei (WT1) [2]: inhibition of reduction of WT1 | expansion of the glomerular mesangial area (PAS staining) [2]: inhibition of expansion of the glomerular mesangial area | nephrin-expressing area in glomerular podocytes (Nephrin) [2]: inhibition of reduction of nephrin-expressing area | phosphorylation of Smad2/3 [2]: strongly inhibited | type IV collagen expression (Col4) [2]: reduction of type IV collagen expression
